Test results reported in patent US12202843B2, “Muscarinic receptor agonists” (Nxera Pharma UK Limited, priority 2014, dated 2025).

Legend:
[1] = target: T1, human muscarinic M1 receptor (Homo sapiens, UniProt P11229); assay: Alphascreen Surefire phospho-ERK1/2 functional assay, M1; assay type: cell-based; settings: for EC50: CHO cells stably expressing human M1, read-out: pEC50 M1 (converted); for % Emax cf. ACh, M1: CHO cells stably expressing human M1, relative to ACh; for Emax: CHO, read-out: % Emax cf. ACh, M1, CHO cells stably expressing human M1, relative to ACh
T1 sequence (P11229 1-460): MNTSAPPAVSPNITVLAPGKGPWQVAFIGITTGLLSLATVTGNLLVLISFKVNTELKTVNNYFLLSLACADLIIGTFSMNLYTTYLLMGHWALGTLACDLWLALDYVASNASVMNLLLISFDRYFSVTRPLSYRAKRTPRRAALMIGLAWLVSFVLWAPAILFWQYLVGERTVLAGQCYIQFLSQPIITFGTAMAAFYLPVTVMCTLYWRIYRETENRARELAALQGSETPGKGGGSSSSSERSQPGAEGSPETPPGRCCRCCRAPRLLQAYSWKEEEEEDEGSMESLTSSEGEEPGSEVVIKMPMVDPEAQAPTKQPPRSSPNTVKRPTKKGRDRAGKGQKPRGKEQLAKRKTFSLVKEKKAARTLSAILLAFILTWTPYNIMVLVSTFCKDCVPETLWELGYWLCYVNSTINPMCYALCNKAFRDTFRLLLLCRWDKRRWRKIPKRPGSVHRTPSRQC
Experimental: (§1) ERK1/2 phosphorylation is a downstream consequence of both Gq/11 and Gi/o protein coupled receptor activation, making it highly suitable for the assessment of M1, M3 (Gq/11 coupled) and M2, M4 receptors (Gi/o coupled), rather than using different assay formats for different receptor subtypes. CHO cells stably expressing the human muscarinic M1, M2, M3 or M4 receptor were plated (25K/well) onto 96-well tissue culture plates in MEM-alpha+10% dialysed FBS. Once adhered, cells were serum-starved overnight. Agonist stimulation was performed by the addition of 5 μL agonist to the cells for 5 min (37° C.). Media was removed and 50 μL of lysis buffer added. […] Plates were incubated for 2 h with gentle agitation in the dark and then read on a PHERAstar plate reader.
(§2) pEC50 and Emax figures were calculated from the resulting data for each receptor subtype.

[2] = target: T2, human muscarinic M4 receptor (Homo sapiens, UniProt P08173); assay: Alphascreen Surefire phospho-ERK1/2 functional assay, M4; assay type: cell-based; settings: for EC50: CHO cells stably expressing human M4, read-out: pEC50 M4 (converted); for % Emax cf. ACh, M4: CHO cells stably expressing human M4, relative to ACh; for Emax: CHO, read-out: % Emax cf. ACh, M4, CHO cells stably expressing human M4, relative to ACh
T2 construct: expressed in transfected cells
T2 sequence (P08173 1-479): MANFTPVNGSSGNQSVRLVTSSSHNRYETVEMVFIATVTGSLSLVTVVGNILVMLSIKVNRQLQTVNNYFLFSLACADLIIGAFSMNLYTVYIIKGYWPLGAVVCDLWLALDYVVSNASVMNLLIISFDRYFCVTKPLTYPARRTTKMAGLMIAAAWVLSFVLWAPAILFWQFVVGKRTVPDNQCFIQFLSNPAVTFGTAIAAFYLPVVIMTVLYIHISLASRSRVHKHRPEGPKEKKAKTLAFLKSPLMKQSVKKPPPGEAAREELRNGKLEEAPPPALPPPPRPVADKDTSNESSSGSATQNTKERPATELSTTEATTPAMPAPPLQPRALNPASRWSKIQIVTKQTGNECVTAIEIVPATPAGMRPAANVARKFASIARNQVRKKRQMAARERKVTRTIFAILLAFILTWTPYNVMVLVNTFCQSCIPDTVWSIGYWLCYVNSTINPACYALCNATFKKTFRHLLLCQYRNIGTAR
Experimental: as §1, §2

Row | SMILES | EC50 [1] | EC50 [2] | Emax [2] | Emax [1] | further results
1 | CCOC(=O)N1C2CCC1CC(N1CCCC3(CC1)CNC(=O)O3)C2 (single isomer, unassigned) [Example 9-2 Isomer 1, ethyl 3-(2-oxo-1-oxa-3,8-diazaspiro[4.6]undec-8-yl)-8-azabicyclo[3.2.1]octane-8-carboxylate] | > 20 µM | > 20 µM |  |  | % Emax cf. ACh, M1 ([1]; listed as 9-2 Isomer 1): 23%; % Emax cf. ACh, M4 ([2]; listed as 9-2 Isomer 1): 13%
2 | [2H]C([2H])(C)OC(=O)N1C2CCC1CC(N1CCC3(CC1)CNC(=O)C3)C2 (single isomer, unassigned) [Example 2-30 Isomer 1, (1,1-^2H2)ethyl 3-(3-oxo-2,8-diazaspiro[4.5]dec-8-yl)-8-azabicyclo[3.2.1]octane-8-carboxylate] | 0.126 µM | 0.2 µM | 49% |  | % Emax cf. ACh, M1 ([1]; listed as 2-30 Isomer 1): 107%
3 | CCOC(=O)N1CC2CCC1CC2N1CCC2(CC1)CNC(=O)O2 (single isomer, unassigned) [Example 3-2 Isomer 1, ethyl 5-(2-oxo-1-oxa-3,8-diazaspiro[4.5]dec-8-yl)-2-azabicyclo[2.2.2]octane-2-carboxylate] | 0.251 µM | 1.26 µM | 29% | 111% | 
4 | CCOC(=O)N1C2CCC1CC(N1CCCC3(CC1)CNC(=O)O3)C2 (single isomer, unassigned) [Example 9-2 Isomer 3, ethyl 3-(2-oxo-1-oxa-3,8-diazaspiro[4.6]undec-8-yl)-8-azabicyclo[3.2.1]octane-8-carboxylate] | 0.501 µM | 0.0794 µM |  |  | % Emax cf. ACh, M1 ([1]; listed as 9-2 Isomer 3): 113%; % Emax cf. ACh, M4 ([2]; listed as 9-2 Isomer 3): 81%
5 | CCOC(=O)N1CC2CCC1CC2N1CCC2(CC1)CNC(=O)C2 (single isomer, unassigned) [Example 3-1 Isomer 4, ethyl 5-(3-oxo-2,8-diazaspiro[4.5]dec-8-yl)-2-azabicyclo[2.2.2]octane-2-carboxylate] | 1.26 µM | > 20 µM |  |  | % Emax cf. ACh, M1 ([1]; listed as 3-1 Isomer 4): 62%; % Emax cf. ACh, M4 ([2]; listed as 3-1 Isomer 4): 7%
6 | CCOC(=O)N1[C@@H]2CC[C@H]1CC(N1CCC3(CC1)OC(=O)NC3Cc1ccccn1)C2 (mixture of isomers) [Example 2-23, ethyl-3-(2-oxo-4-(pyridin-2-ylmethyl)-1-oxa-3,8-diazaspiro[4.5]decan-8-yl)-8-azabicyclo[3.2.1]octane-8-carboxylate] | 0.501 µM | > 20 µM | 12% | 86% | 
7 | CCOC(=O)N1CC2CCC1CC2N1CCC2(CC1)CNC(=O)O2 (single isomer, unassigned) [Example 3-2 Isomer 2, ethyl 5-(2-oxo-1-oxa-3,8-diazaspiro[4.5]dec-8-yl)-2-azabicyclo[2.2.2]octane-2-carboxylate] | 0.1 µM | 0.398 µM |  |  | % Emax cf. ACh, M1 [1]: 127%; % Emax cf. ACh, M4 [2]: 36%
8 | CSC(=O)N1C2CCC1CC(N1CCC3(CC1)CNC(=O)C3)C2 (single isomer, unassigned) [Example 2-34 Isomer 1] | 0.501 µM | > 20 µM | 8% | 50% | 
9 | CCSC(=O)N1C2CCC1CC(N1CCC3(CC1)CNC(=O)C3)C2 (single isomer, unassigned) [Example 2-35 Isomer 1] | 0.0398 µM | > 20 µM | 7% |  | % Emax cf. ACh, M1 ([1]; listed as 2-35 Isomer 1): 24%
10 | CCOC(=O)N1C2CCC1CC(N1CCC3(CC1)CC(=O)N(CC(C)C)C3)C2 (single isomer, unassigned) [Example 2-27 Isomer 2] | 0.398 µM | > 20 µM | 14% | 38% | 
11 | CCOC(=O)N1C2CCC1CC(N1CCC3(CC1)OC(=O)NC3(C)C)C2 (single isomer, unassigned) [Example 2-18 Isomer 1] | 0.251 µM | > 20 µM | 11% | 55% | 
12 | COC(=O)N1C2CCC1CC(N1CCC3(CC1)CNC(=O)C3)C2 (single isomer, unassigned) [Example 2-1 Isomer 2] | 0.631 µM | 1.58 µM | 25% | 72% | 
13 | CCOC(=O)N1C2CCC1CC(N1CCCC3(CC1)CNC(=O)O3)C2 (single isomer, unassigned) [Example 9-2 Isomer 2, ethyl 3-(2-oxo-1-oxa-3,8-diazaspiro[4.6]undec-8-yl)-8-azabicyclo[3.2.1]octane-8-carboxylate] | > 20 µM | > 20 µM |  |  | % Emax cf. ACh, M1 ([1]; listed as 9-2 Isomer 2): 18%; % Emax cf. ACh, M4 ([2]; listed as 9-2 Isomer 2): 8%
14 | CCOC(=O)N1CC2CCC(C1)C2N1CCC2(CC1)CNC(=O)C2 (single isomer, unassigned) [Example 4-1 Isomer 2] | 0.501 µM | > 20 µM | 3% | 36% | 
15 | CCOC(=O)N1C2CCC1CC(N1CCC3(CC1)CC(=O)N(CC1CC1)C3)C2 (single isomer, unassigned) [Example 2-28 Isomer 2] | 0.501 µM | 0.316 µM | 27% | 57% | 
16 | CCCC(=O)N1C2CCC1CC(N1CCC3(CC1)CNC(=O)C3)C2 (single isomer, unassigned) [Example 2-6 Isomer 2] | 0.501 µM | 15.8 µM | 32% | 35% | 
17 | COC(=O)N1CC2CC(N3CCC4(CC3)CNC(=O)C4)CC1C2 (single isomer, unassigned) [Example 6-1 Isomer 1] | 2.51 µM | > 20 µM | 53% |  | % Emax cf. ACh, M1 ([1]; listed as 6-1 Isomer 1): 78%
18 | CCOC(=O)N1C2CCC1C(F)C(N1CCC3(CC1)CNC(=O)O3)C2 (single isomer, unassigned) [Example 2-19 Isomer 2] | 1 µM | 3.98 µM | 74% | 94% | 
19 | CCOC(=O)N1C2CCC1C(F)C(N1CCC3(CC1)CNC(=O)C3)C2 (single isomer, unassigned) [Example 2-11 Isomer 1] | 0.631 µM | 1 µM | 53% | 95% | 
20 | O=C1CC2(CCN(C3CC4CCC(C3)N4C(=O)OCCF)CC2)CN1 (single isomer, unassigned) [Example 2-3 Isomer 1] | 0.398 µM | 2 µM |  |  | % Emax cf. ACh, M1 ([1]; listed as 2-3 Isomer 1): 85%; % Emax cf. ACh, M4 ([2]; listed as 2-3 Isomer 1): 47%
21 | CCOC(=O)N1C2CCC1CC(N1CCCC3(CC1)CNC(=O)O3)C2 (single isomer, unassigned) [Example 9-2 Isomer 4, ethyl 3-(2-oxo-1-oxa-3,8-diazaspiro[4.6]undec-8-yl)-8-azabicyclo[3.2.1]octane-8-carboxylate] | 0.01 µM | 0.00501 µM |  |  | % Emax cf. ACh, M1 ([1]; listed as 9-2 Isomer 4): 103%; % Emax cf. ACh, M4 ([2]; listed as 9-2 Isomer 4): 66%
22 | CCSC(=O)N1C2CCC1CC(N1CCC3(CC1)CNC(=O)C3)C2 (single isomer, unassigned) [Example 2-35 Isomer 2] | 0.794 µM |  |  |  | % Emax cf. ACh, M1 ([1]; listed as 2-35 Isomer 2): 50%; % Emax cf. ACh, M4 [2]: 10%
23 | CCOC(=O)N1C2CCC1CC(N1CCC3(CC1)OC(=O)NC3C)C2 (single isomer, unassigned) [Example 2-15 Isomer 1] | 0.1 µM | > 20 µM | 10% | 101% | 
